Experimental data: the Deep4Chem optical property database
Values belong to the molecule of their own block, whether it stands above or below them.

Test: solvent given as SMILES

SMILES: c1ccc(-c2cc(-c3ccc4ccc5cccc6ccc3c4c56)ccn2)nc1
emission maximum (in C1CCOC1): 394 nm
emission maximum (in CC#N): 410 nm
emission maximum (in CCC#N): 408 nm
emission maximum (in CCCC#N): 408 nm
emission maximum (in CCCCCC): 385 nm
emission maximum (in CCCO): 429 nm
emission maximum (in CCO): 431 nm
emission maximum (in CO): 438 nm
emission maximum (in Cc1ccccc1): 393 nm

SMILES: CC1=C(c2ccc(N(c3ccccc3)c3ccccc3)cc2)C(C)=[N+]2C1=C(c1c(-c3ccccn3)nc3ccccn13)c1c(C)c(-c3ccc(N(c4ccccc4)c4ccccc4)cc3)c(C)n1[B-]2(F)F
emission maximum (in ClCCl): 709 nm

SMILES: CC(C)(C)c1ccc(C(C)(C)C)c(N2C(=O)c3cccc4c(-c5ccc(-c6ccccc6)s5)ccc(c34)C2=O)c1
emission maximum (in CO): 572 nm
emission maximum (in CS(C)=O): 557 nm
emission maximum (in Cc1ccccc1): 493 nm

SMILES: N#Cc1nc(-n2c3ccccc3c3ccccc32)cc(-n2c3ccccc3c3ccccc32)n1
emission maximum (in Cc1ccccc1): 518 nm

SMILES: Cc1cc(N2c3ccccc3C3(c4ccccc4-c4ccccc43)c3ccccc32)c(C)cc1-c1nc(-c2ccccc2)nc(-c2ccccc2)n1
emission maximum (in Cc1ccccc1): 486 nm

SMILES: CC(C)Nc1cc2c(cc1F)c(=O)c1cc(F)c(NC(C)C)cc1n2C(C)C
emission maximum (in CCO): 423 nm

SMILES: CCCCCCCCCCCCC(CCCCCCCCCC)Cn1c2cc(C=C(C#N)C#N)c3cccc4c5cccc6c(C=C(C#N)C#N)cc1c(c65)c2c34 (centres undefined)
emission maximum (in C1CCCCC1): 603 nm
emission maximum (in CC#N): 641 nm
emission maximum (in Cc1ccccc1): 623 nm
emission maximum (in ClCCl): 635 nm

SMILES: C=CC1CN2CCC1CC2[C@@H](OCc1ccccc1)c1ccnc2ccc(O)cc12 (some centres undefined)
emission maximum (in C1CCOC1): 358 nm
emission maximum (in CC#N): 362 nm
emission maximum (in CCCC#N): 361 nm
emission maximum (in Cc1ccccc1): 355 nm
emission maximum (in ClCCl): 363 nm

SMILES: CC(C)(C)c1ccc(-c2nc3c4ccc(-c5cccc6ccccc56)cc4c4cc(-c5cccc6ccccc56)ccc4c3n2-c2ccc(C(C)(C)C)cc2)cc1
emission maximum (in C1CCOC1): 386 nm
emission maximum (in C1COCCO1): 385 nm
emission maximum (in CC#N): 391 nm
emission maximum (in CCCCCC): 381 nm
emission maximum (in CCCCOCCCC): 383 nm
emission maximum (in CCN(CC)CC): 382 nm
emission maximum (in CCOC(C)=O): 385 nm
emission maximum (in CCOCC): 382 nm
emission maximum (in CN(C)C=O): 394 nm
emission maximum (in Cc1ccccc1): 385 nm
emission maximum (in ClC=C(Cl)Cl): 386 nm
emission maximum (in ClCCl): 388 nm

SMILES: CN(C)c1ccc(-c2cc3ccc([N+](=O)[O-])cc3c(=O)o2)cc1
emission maximum (in CC(C)=O): 682 nm
emission maximum (in CCCCO): 559 nm
emission maximum (in CCOC(C)=O): 621 nm
emission maximum (in CN(C)C=O): 605 nm
emission maximum (in CO): 605 nm
emission maximum (in ClC(Cl)Cl): 652 nm

SMILES: O=C(c1ccncc1)c1ccc(-n2c3ccccc3c3cc(-n4c5ccccc5c5ccccc54)ccc32)cc1
emission maximum (in Cc1ccccc1): 480 nm
emission maximum (in c1cc(-c2cccc(-n3c4ccccc4c4ccccc43)c2)cc(-n2c3ccccc3c3ccccc32)c1): 475.23 nm

SMILES: CCC1=C(C)C2=C(c3ccc(-c4c5ccccc5c(-c5ccccc5)c5ccccc45)cc3)c3c(C)c(CC)c(C)n3[B-](F)(F)[N+]2=C1C
emission maximum (in CC#N): 534 nm
emission maximum (in CCCCCC): 536 nm
emission maximum (in CCO): 537 nm
emission maximum (in CN(C)C=O): 537 nm
emission maximum (in Cc1ccccc1): 539 nm
emission maximum (in ClCCl): 540 nm

SMILES: O=S1(=O)c2ccccc2-c2cc(-n3c4ccccc4c4cc(-c5ccc6c(c5)c5ccccc5n6-c5ccccc5)ccc43)ccc21
emission maximum (in O=P(c1ccccc1)(c1ccccc1)c1ccccc1Oc1ccccc1P(=O)(c1ccccc1)c1ccccc1): 462.73 nm

SMILES: CC1(C)c2cccc(-c3nc(-c4ccccc4)nc(-c4ccccc4)n3)c2Oc2c(-n3c4ccccc4c4ccccc43)cccc21
emission maximum (in C1CCCCC1): 395 nm
emission maximum (in CC(C)=O): 469 nm
emission maximum (in Cc1ccccc1): 419 nm
emission maximum (in ClC(Cl)Cl): 454 nm

SMILES: CCCN(c1ccccc1)c1ccc2c(c1)C(CC)(CC)c1cc(/C=C/c3ccc(/C=C(\C#N)C(=O)O)s3)ccc1-2
emission maximum (in C1CCOC1): 572 nm
emission maximum (in C1COCCO1): 617 nm
emission maximum (in CC#N): 531 nm
emission maximum (in CC(C)=O): 575 nm
emission maximum (in CCOC(C)=O): 552 nm
emission maximum (in CN(C)C=O): 593 nm
emission maximum (in CS(C)=O): 514 nm
emission maximum (in ClCCl): 600 nm

SMILES: Cc1ccc(N2C(c3ccccc3NS(=O)(=O)c3ccc(C)cc3)=NC(c3ccccc3)C2c2ccccc2)cc1 (centres undefined)
emission maximum (in Cc1ccccc1): 375 nm

SMILES: c1ccc(-n2c(-c3ccc([Si](c4ccc(-c5nc6ccccc6n5-c5ccccc5)cc4)(c4ccc(-c5nc6ccccc6n5-c5ccccc5)cc4)c4ccc(-c5nc6ccccc6n5-c5ccccc5)cc4)cc3)nc3ccccc32)cc1
emission maximum (in ClCCl): 363 nm

SMILES: CCOC(=O)CN1C(=O)C2=C(c3ccccc3)N(CC(=O)OCC)C(=O)C2=C1c1ccccc1
emission maximum (in CC#N): 512 nm
emission maximum (in CS(C)=O): 519 nm
emission maximum (in Cc1ccccc1): 520 nm

SMILES: Cc1ccccc1[B-]1(c2ccccc2C)n2nc(C(F)(F)F)cc2-c2c3ccccc3cc[n+]21
emission maximum (in C1CCCCC1): 414 nm
emission maximum (in Cc1ccccc1): 414 nm
emission maximum (in ClCCl): 412 nm

SMILES: Cc1cc(C)c2c(c1)c1cc(C)cc(C)c1n2-c1ccc2c(c1)Oc1ccccc1B2c1c(C(C)C)cc(C(C)C)cc1C(C)C
emission maximum (in Cc1ccccc1): 443 nm

SMILES: CC1CC=C(c2ccc(-c3ccc(C=O)s3)s2)CC1 (centres undefined)
emission maximum (in C1CCOC1): 467 nm
emission maximum (in CC#N): 482 nm
emission maximum (in CCCCCC): 445 nm
emission maximum (in CCO): 500 nm
emission maximum (in OCCOCCO): 508 nm
emission maximum (in c1ccncc1): 483 nm

SMILES: COCCC1=Cc2nc1ccc1[nH]c(cc1CCOC)c1nc(ccc3[nH]c2cc3CCOC)C(CCOC)=C1
emission maximum (in Cc1ccccc1): 642 nm

More lines, now with the values ahead:

emission maximum (in ClCCl): 441 nm
SMILES: CC(C)(C)NC(=O)c1ccc(-c2cc3ccccc3s2)c2ccc3c4ccccc4c4ccccc4c3c12

emission maximum (in C1CCCCC1): 350.75 nm
emission maximum (in O): 351 nm
SMILES: Oc1ccc2ccccc2c1

emission maximum (in ClC(Cl)Cl): 544 nm
SMILES: Cc1c2c(c(C)c3ccccc13)C1=C2C=CC2Nc3ccccc3NC12 (centres undefined)

emission maximum (in C1CCCCC1): 537 nm
emission maximum (in CC#N): 578 nm
SMILES: COc1cc(OC)c2c(c1)C(=O)c1ccc(OC)cc1-2

emission maximum (in CC#N): 438 nm
SMILES: O=C1O/C(=C\c2cccs2)c2ccccc21

emission maximum (in ClC(Cl)Cl): 387 nm
SMILES: C(#Cc1ccc(C#Cc2ccc(C#Cc3ccccc3)cc2)cc1)c1ccccc1

emission maximum (in ClC(Cl)Cl): 517.73 nm
SMILES: CC1=CC(C)=[N+]2C1=C(c1ccc(I)cc1)c1c(C)cc(C)n1[B-]2(F)F

emission maximum (in ClCCl): 391 nm
SMILES: CC1(C)c2ccccc2-c2cc3c(cc21)c1ccccc1n3-c1ccccc1

emission maximum (in CCO): 582 nm
emission maximum (in ClCCl): 575 nm
SMILES: Cc1ccccc1-c1c2ccc(=[N+]3CCOCC3)cc-2oc2cc(N3CCOCC3)ccc12

emission maximum (in ClCCl): 415 nm
SMILES: CC(=O)c1c(N[C@@H](Cc2ccc(O)cc2)C(=O)O)c2ccc(N(C)C)cc2oc1=O

emission maximum (in ClCCl): 387 nm
SMILES: C(=C\c1ccc(-c2ccncc2)cc1)/c1ccc(-c2ccncc2)cc1

emission maximum (in CC#N): 413 nm
SMILES: CCOC(=O)c1c2c3c(ccc(C)c3c3cc4ccccc4cc13)N(C)C2=O

emission maximum (in ClCCl): 405 nm
SMILES: Oc1ccc2ccccc2c1-c1nc2c(c3c1-c1ccccc1CC3)-c1ccccc1CC2

emission maximum (in CO): 447 nm
SMILES: Cc1ccc(-c2nc(-c3ccc(C#N)cc3)[nH]c2-c2ccc(C)cc2)cc1

emission maximum (in CO): 802 nm
SMILES: CC1(C)C(/C=C/C2=C(Cl)C(=C/C=C3/N(CCCS(=O)(=O)[O-])c4ccccc4C3(C)C)/CCC2)=[N+](CCCS(=O)(=O)[O-])c2ccccc21

emission maximum (in CC#N): 605 nm
emission maximum (in CS(C)=O): 614 nm
emission maximum (in ClC(Cl)Cl): 607 nm
SMILES: C#CCn1c2ccccc2c2cc(/C=C/c3cc(C)c4n3[B-](F)(F)[N+]3=C(C)C=C(C)C3=C4c3ccc(I)cc3)ccc21

emission maximum (in ClC(Cl)Cl): 589 nm
SMILES: COC(=O)c1ccc(C2=C3C(C)=CC(C)=[N+]3[B-](F)(F)n3c(/C=C/c4c[nH]cn4)cc(C)c32)cc1

emission maximum (in CC#N): 423 nm
emission maximum (in CCCCCC): 380 nm
SMILES: Nc1ccc(/C=C/c2ccccc2)cc1

emission maximum (in ClC(Cl)Cl): 519.7 nm
SMILES: CC1=CC(C)=[N+]2C1=C(c1ccc(I)cc1)c1c(C)cc(C)n1[B-]2(Oc1ccc(Cl)cc1)Oc1ccc(Cl)cc1

emission maximum (in C1CCOC1): 381 nm
SMILES: CCCCOc1cc2ccccc2c2c1oc1cc3ccccc3cc12

emission maximum (in ClC(Cl)Cl): 371 nm
SMILES: CC(C)(C)c1ccc2oc3nc4oc5ccc(N6c7ccccc7Sc7ccccc76)cc5c4cc3c2c1

emission maximum (in CCCCCC): 699 nm
emission maximum (in ClCCl): 738 nm
SMILES: CC(C)[Si](C#Cc1c2cc3ccccc3cc2c(C#C[Si](C(C)C)(C(C)C)C(C)C)c2nc3ccccc3nc12)(C(C)C)C(C)C

emission maximum (in ClCCl): 613 nm
SMILES: CC1=CC(C)=[N+]2C1=C(c1ccc(Br)cc1)c1c(C)cc(/C=C/c3ccc[nH]3)n1[B-]2(F)F

emission maximum (in ClC(Cl)Cl): 461 nm
SMILES: c1ccc(-c2ncc3ccccn23)cc1

emission maximum (in C1CCOC1): 417 nm
emission maximum (in C1COCCO1): 417 nm
emission maximum (in CC#N): 417 nm
emission maximum (in CC(C)O): 423 nm
emission maximum (in CCO): 428 nm
emission maximum (in CCOC(C)=O): 415 nm
emission maximum (in CN(C)C=O): 422 nm
emission maximum (in CO): 432 nm
emission maximum (in CS(C)=O): 424 nm
emission maximum (in O): 449 nm
SMILES: Cc1ccc(C2CC(c3ccc(O)cc3)=NN2c2ccc(S(N)(=O)=O)cc2)cc1 (centres undefined)

emission maximum (in CC#N): 478 nm
emission maximum (in O): 521 nm
SMILES: Nc1nc2ccccc2[n+]([O-])n1

emission maximum (in ClCCl): 585 nm
SMILES: CC1=C(c2ccccc2)C(C)=[N+]2C1=C(c1c(-c3ccccn3)nc3ccccn13)c1c(C)c(-c3ccccc3)c(C)n1[B-]2(F)F

emission maximum (in ClCCl): 485 nm
SMILES: COc1ccc(-c2ccc(/C=C/c3cnc4ccccc4n3)cc2)cc1

emission maximum (in CC#N): 479 nm
emission maximum (in CO): 496 nm
emission maximum (in ClCCl): 478 nm
SMILES: Cc1cc(O)c(-c2[nH]c(=O)n3c2-c2ccccc2C3=O)cc1Cl

emission maximum (in C1CCCCC1): 302 nm
emission maximum (in CC#N): 318 nm
emission maximum (in CCO): 323 nm
emission maximum (in CCOC(C)=O): 304 nm
SMILES: COC(=O)c1nc(-c2ccco2)oc1C

emission maximum (in C1CCCCC1): 600 nm
emission maximum (in c1ccccc1): 644 nm
SMILES: CN(C)c1ccc2c(c1)C(=O)c1ccccc1-2

emission maximum (in CC#N): 567 nm
emission maximum (in CCCCCC): 568 nm
emission maximum (in CCOC(C)=O): 567 nm
emission maximum (in CO): 563 nm
emission maximum (in ClCCl): 569 nm
SMILES: CCCSc1ccc2n1[B-](F)(F)[N+]1=C(SC#N)C=CC1=C2c1ccccc1
